Source: BindingDB's records for doi:10.1016/j.ejmech.2010.08.026 (Instituto De Parasitología Y Biomedicina …, 2010)

Target: T1, Purine nucleoside phosphorylase (Plasmodium falciparum, UniProt Q8T9Z7)
T1 sequence (Q8T9Z7 whole entry): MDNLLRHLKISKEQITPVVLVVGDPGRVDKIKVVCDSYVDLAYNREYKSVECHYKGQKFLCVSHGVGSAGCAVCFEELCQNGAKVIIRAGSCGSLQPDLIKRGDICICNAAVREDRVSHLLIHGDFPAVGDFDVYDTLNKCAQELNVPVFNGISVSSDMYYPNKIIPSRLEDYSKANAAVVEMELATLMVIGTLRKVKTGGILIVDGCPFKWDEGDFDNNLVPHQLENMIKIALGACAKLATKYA
Assay: Inhibition of Plasmodium falciparum PNP expressed in Escherichia coli BL21(DE3) cells by spectrophotometry

Structure (SMILES): O=c1[nH]c(O)c(Cc2ccccc2)c(=O)[nH]1 [5-benzylpyrimidine-2,4,6(1H,3H,5H)-trione]
- IC50: > 1 mM
